Measured values taken from patent publication US10912771B1, “Methods for the administration of certain VMAT2 inhibitors” (Neurocrine Biosciences, Inc., priority 2017, dated 2021).
Entries after “also recorded” stand apart in the source; their conditions may differ. Read-outs that look alike come from different tables or passages of the source.

Key:
[1] = system: more than 80 targets (GPCRs, cell-surface monoamine transporters, ion channels including HERG); assay: Cerep multi-target activity screen; details: receptors, monoamine transporters, and ion channels
[2] = Phase 1 open-label one-sequence crossover drug-interaction study: plasma pharmacokinetics of NBI-98854 and metabolites with and without rifampin; assay type: in vivo, human; details: for half-life: read-out: Mean t1/2 (converted); for AUC(0-t) / Tlag / t1/2: Mean (SD)
Protocol: Subjects received a single dose of 80 mg valbenazine tosylate on Days 1 and 11 between 0800 and 1000 hours. In addition, subjects received 600 mg rifampin (300 mg×2 capsules) once daily on Days 5 (after collection of the 96-hour PK sample) through 14 between 0830 and 1030 hours. Subjects were required to fast overnight before receiving the study drugs (valbenazine tosylate and rifampin). Subjects were discharged from the study center on Day 15 (final study day or upon early termination) after all safety evaluations and study assessments had been completed.
Safety was assessed throughout the study.
NBI-98854 40 mg capsules were administered orally. The dose of NBI-98854 was based on ditosylate salt (dose expressed as free base). Subjects received a single dose of NBI-98854 80 mg (as two 40 mg capsules) twice during the study, on Days 1 and 11.
Rifampin 300 mg capsules were administered orally. Subjects received a single dose of rifampin 600 mg (as two 300 mg capsules) on Days 5 (after collection of the 96 hour NBI-98854 PK sample) through 14 between 0830 and 1030 hours.
The following plasma PK parameters were calculated only for NBI-98854: • Apparent systemic clearance after oral administration (CL/F) • Apparent volume of distribution during the terminal phase after oral administration (Vz/F)
The last significant figure was rounded up if the digit to the right of it was >5, and was rounded down if the digit to the right of it was […].
The last significant figure was rounded up if the digit to the right of it was ≥5, and was rounded down if the digit to the right of it was ≤4.
An analysis of variance (ANOVA) model was used to compare AUC0-∞ and Cmax for NBI-98854 administered with rifampin (“test”) versus AUC0-∞ and Cmax for NBI-98854 alone (“reference”). The PK parameters for metabolites of NBI-98854 and rifampin were also evaluated. Safety data were summarized using descriptive statistics.

[3] = molecular target: Serotonin 5-HT7 (Homo sapiens, UniProt P34969); assay: Cerep screen, Serotonin 5-HT7; details: 1 or 10 μM final concentration; n=2
Serotonin 5-HT7, sequence (P34969 whole entry): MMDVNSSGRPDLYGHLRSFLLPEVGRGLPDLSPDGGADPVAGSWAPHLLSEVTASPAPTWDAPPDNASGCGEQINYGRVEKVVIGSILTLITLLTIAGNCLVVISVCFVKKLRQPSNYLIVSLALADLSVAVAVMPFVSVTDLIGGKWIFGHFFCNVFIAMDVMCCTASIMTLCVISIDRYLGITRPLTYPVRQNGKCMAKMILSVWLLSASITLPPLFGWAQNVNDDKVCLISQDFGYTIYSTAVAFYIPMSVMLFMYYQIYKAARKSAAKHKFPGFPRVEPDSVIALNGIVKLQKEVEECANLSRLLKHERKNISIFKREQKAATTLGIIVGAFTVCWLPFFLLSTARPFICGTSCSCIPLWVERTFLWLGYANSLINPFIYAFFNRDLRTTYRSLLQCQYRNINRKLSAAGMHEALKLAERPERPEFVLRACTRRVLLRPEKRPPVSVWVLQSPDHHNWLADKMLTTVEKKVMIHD

[4] = Ptosis, in vivo surrogate measure of pharmacological effect
[5] = molecular target: T1, human VMAT1 transporter (Homo sapiens, UniProt P54219); assay: Uptake in cells expressing VMAT1; assay type: cell-based; details: TBZ, VBZ and metabolites at concentrations up to 10 μM, listed as R,R,R-DHTBZ
T1 construct: expressed in transfected cells
T1 sequence (P54219 1-525): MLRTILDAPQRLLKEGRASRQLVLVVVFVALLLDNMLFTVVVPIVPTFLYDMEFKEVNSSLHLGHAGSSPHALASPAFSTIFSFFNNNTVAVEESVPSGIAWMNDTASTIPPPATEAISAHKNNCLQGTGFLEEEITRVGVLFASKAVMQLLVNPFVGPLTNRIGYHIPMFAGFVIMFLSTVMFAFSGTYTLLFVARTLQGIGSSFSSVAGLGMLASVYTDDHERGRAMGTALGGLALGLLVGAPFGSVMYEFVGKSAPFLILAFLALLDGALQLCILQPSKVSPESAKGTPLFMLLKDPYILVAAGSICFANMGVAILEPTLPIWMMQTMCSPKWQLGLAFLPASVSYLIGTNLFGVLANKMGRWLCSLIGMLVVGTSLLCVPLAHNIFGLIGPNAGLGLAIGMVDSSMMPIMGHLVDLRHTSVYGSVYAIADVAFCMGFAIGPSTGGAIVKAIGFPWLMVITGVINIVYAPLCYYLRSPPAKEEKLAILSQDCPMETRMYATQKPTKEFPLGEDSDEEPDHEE

[6] = Prolactin release, in vivo surrogate for dopaminergic modulation
[7] = system: CYP enzymes; details: human
[8] = molecular target: T2, Serotonin 5-HT1A (Homo sapiens, UniProt P08908); assay: Cerep screen, Serotonin 5-HT1A; details: 1 or 10 μM final concentration; n=2
T2 sequence (P08908 1-422): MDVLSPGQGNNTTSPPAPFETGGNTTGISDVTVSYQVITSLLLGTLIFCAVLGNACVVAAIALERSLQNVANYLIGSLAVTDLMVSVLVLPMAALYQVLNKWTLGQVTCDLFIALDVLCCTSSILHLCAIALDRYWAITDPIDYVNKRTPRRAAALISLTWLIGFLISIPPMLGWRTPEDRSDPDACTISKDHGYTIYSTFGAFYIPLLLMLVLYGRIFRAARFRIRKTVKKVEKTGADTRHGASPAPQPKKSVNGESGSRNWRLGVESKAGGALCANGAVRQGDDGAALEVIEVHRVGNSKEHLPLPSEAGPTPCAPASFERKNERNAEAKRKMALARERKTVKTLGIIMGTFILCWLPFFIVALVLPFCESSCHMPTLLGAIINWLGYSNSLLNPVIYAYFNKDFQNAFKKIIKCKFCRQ

[9] = both sexes, human, plasma, oral, 80 mg
[10] = plasma metabolite NBI-98782, NBI-98854 80 mg + rifampin 600 mg, N = 11
[11] = plasma metabolite NBI-98782, NBI-98854 80 mg alone, N = 11

## COc1cc2c(cc1OC)[C@H]1C[C@@H](O)[C@H](CC(C)C)CN1CC2 [NBI-98782, (2R, 3R,11bR)-3-isobutyl-9,10-dimethoxy-1,3,4,6,7,11b-hexahydro-2H-pyrido[2,1-a]isoquinolin-2-ol]
[1]
  affinity for more than 80 binding sites: little to no affinity
[2]; both sexes, human, oral, 80 mg, plasma analyte, NBI-98854 alone
  half-life: 19 h
[2]; both sexes, human, oral, 80 mg, plasma analyte, NBI-98854 alone, read-out: Median tmax
  Tmax: 4 h
[2]; both sexes, human, oral, plasma analyte, NBI-98854 administered with rifampin
  half-life: 12 h
[2]; both sexes, human, oral, plasma analyte, NBI-98854 plus rifampin, read-out: Median tmax
  Tmax: 3 h
[2]; [9]
  AUC(0-inf): 689 ng·h/mL
  Cmax: 21.5 ng/mL
  MRT: 28 h
[2]; both sexes, human, plasma, oral, 80 mg, plasma metabolite NBI-98782, NBI-98854 80 mg alone, N = 11, read-out: AUC0-24
  AUC(0-t): 364 ng·h/mL
[2]; both sexes, human, plasma, oral, 80 mg, plasma metabolite NBI-98782, NBI-98854 80 mg alone, N = 11, read-out: AUC0-tlast
  AUC(0-t): 665 ng·h/mL
[2]; both sexes, human, plasma, oral, plasma metabolite NBI-98782, NBI-98854 80 mg + rifampin 600 mg, N = 11, read-out: AUC0-24
  AUC(0-t): 115 ng·h/mL
[2]; both sexes, human, plasma, oral, plasma metabolite NBI-98782, NBI-98854 80 mg + rifampin 600 mg, N = 11, read-out: AUC0-tlast
  AUC(0-t): 153 ng·h/mL
[2]; [10]
  Tlag: 0.23 (0.075) hr
  t1/2: 12 (1.7) hr
[2]; plasma metabolite NBI-98782, NBI-98854 80 mg + rifampin 600 mg, N = 11, Median (min, max)
  Tmax: 3.0 (0.50, 4.0) hr
[2]; [11]
  Tlag: 0.25 (0.16) hr
  t1/2: 19 (2.3) hr
[2]; plasma metabolite NBI-98782, NBI-98854 80 mg alone, N = 11, Median (min, max)
  Tmax: 4.0 (0.52, 18) hr
[3]
  percent of control specific binding, Serotonin 5-HT7: 3%
[4]
  induction of ptosis: induced ptosis in an equivalent manner
[5]
  inhibition of uptake through VMAT1: no significant inhibitory activity; also recorded: no significant effect
[6]
  increase in serum prolactin levels: induced a similar increase in serum prolactin levels as TBZ
[7]
  enzymes involved in oxidative metabolism: mediated primarily by CYP2D6 with contribution from CYP3A4/5
[8]
  percent of control specific binding, Serotonin 5-HT1A: 17%
